Reference: patent publication US20050112573A1, “Method of detecting toxic substance” (priority 2001, published 2005)

Test system: yeast genes (level of expressed mRNA)
Test: DNA chip analysis of expressed mRNA of yeast genes after 2 h culture with a toxic chemical substance
Assay type: cell-based, Saccharomyces cerevisiae S288C
Protocol: Yeast (Saccharomyces cerevtisiae S288C (α SUC2mal mel gap2 CUP1)) were cultured at 25° C. on YPD medium (yeast extract 1%, polypepton 2%, glucose 2%). One of toxic chemical substances was added to the cell at logarithmic growth phase, and the cell was further cultured for two hours. Cell was cultured without any chemical substance in the same condition, and was used as control. Concentrations of the chemical substances were defined to inhibit the growth of the yeast but not lead to death.
After the completion of cultivation, the culture was centrifuged to collect the cells. To the cells, sodium acetate buffer (50 mM sodium acetate, 10 mM EDTA, 1% SDS) was added, and the mixture was shaken at 65° C. for five minutes, followed by returning to room temperature, and obtaining the supernatant, which procedure was repeated two times. To the supernatant, ½ amount of a solution of phenol/chloroform was added, and the mixture was centrifuged to give a supernatant, which was added with an equal amount of chloroform, and the mixture was centrifuged to give a supernatant. To the supernatant, an equal amount of isopropanol containing 0.3 M sodium acetate was added, and the mixture was allowed to stand at room temperature for 30 minutes, after which the mixture was centrifuged to give a sediment of the whole RNAs. Seventy % ethanol was added to the sediment, and the mixture was again centrifuged to give a sediment, which was then dried and dissolved in water. mRNA was isolated from the whole RNAs as followings. In view of the fact that a poly A chain is attached to the 3′ terminus of mRNA, a polynucleotide having a poly T structure which was immobilized on the surface of latex beads was used to trap the mRNA, and then the mRNA was washed and eluted with spine column (Oligotex-dT30<Super>mRNA Purification Kit, Takara). Reverse transcription of the mRNA was conducted with a reverse transcriptase (Super Script II Reverse Transcriptase; catalogue No. 18064-014, GibcoBRL) using fluorescence-labeled nucleotides to give cDNAs that were introduced with Cy3-dUTP or Cy5-dUTP during the reverse transcription.
The labeled cDNAs were dissolved in TE buffer (10 mM Tris-HCl/1 mM EDTA, pH8.0), and the solution was dropped on the DNA chip containing the whole genes of yeast (DNA Chip Research Inc. Japan) so that the cDNAs were hybridized on the DNA chip at 65° C. for over 12 hours. The fluoresces intensity of the DNA chip was read with a scanner, and the ratio relative to the fluorescence intensity resulting from the absence of chemical substance was estimated as the following, which is shown in Tables 1 to 9: [formula]
In the Tables, “Intensity” indicated in the rightmost column is a value of the level of expressed mRNA of each gene in control cells as divided by the average level of the expressions of the whole genes.

COc1cc(CNC(=O)CCCCC=CC(C)C)ccc1O [(12), 8-methyl-N-vanillyl-6-nonenamide]
1.0: The level of expressed mRNA in the presence of chemical substance/absence: YHL006C (gene YHL006C) | level of expressed mRNA in the presence of chemical substance/in its absence (gene YHR092C) | The level of expressed mRNA in the presence of chemical substance/absence: YHR134W (gene YHR134W) | The level of expressed mRNA in the presence of chemical substance/absence: YJL097W (gene YJL097W) | level of expressed mRNA in the presence of chemical substance/in its absence (gene YJL132W) | The level of expressed mRNA in the presence of chemical substance/absence: YMR115W (gene YMR115W) | The level of expressed mRNA in the presence of chemical substance/absence: YMR160W (gene YMR160W) | The level of expressed mRNA in the presence of chemical substance/absence: YNL058C (gene YNL058C) | The level of expressed mRNA in the presence of chemical substance/absence: YNL063W (gene YNL063W) | level of expressed mRNA in the presence of chemical substance/in its absence (gene YNL169C) | level of expressed mRNA in the presence of chemical substance/in its absence (gene YNR019W) | level of expressed mRNA in the presence of chemical substance/in its absence (gene YOR336W)
1.2: level of expressed mRNA in the presence of chemical substance/in its absence (gene YMR272C) | level of expressed mRNA in the presence of chemical substance/in its absence (gene YNR002C) | level of expressed mRNA in the presence of chemical substance/in its absence (gene YOL143C) | level of expressed mRNA in the presence of chemical substance/in its absence (gene YOL157C) | level of expressed mRNA in the presence of chemical substance/in its absence (gene YOR136W)
0.9: The level of expressed mRNA in the presence of chemical substance/absence: YHR083W (gene YHR083W) | The level of expressed mRNA in the presence of chemical substance/absence: YIL165C (gene YIL165C) | level of expressed mRNA in the presence of chemical substance/in its absence (gene YIR035C) | The level of expressed mRNA in the presence of chemical substance/absence: YJR030C (gene YJR030C) | The level of expressed mRNA in the presence of chemical substance/absence: YKL059C (gene YKL059C) | level of expressed mRNA in the presence of chemical substance/in its absence (gene YKL067W) | The level of expressed mRNA in the presence of chemical substance/absence: YKL094W (gene YKL094W) | The level of expressed mRNA in the presence of chemical substance/absence: YKL100C (gene YKL100C) | level of expressed mRNA in the presence of chemical substance/in its absence (gene YLR273C) | The level of expressed mRNA in the presence of chemical substance/absence: YLR427W (gene YLR427W) | The level of expressed mRNA in the presence of chemical substance/absence: YML013W (gene YML013W) | The level of expressed mRNA in the presence of chemical substance/absence: YML118W (gene YML118W) | The level of expressed mRNA in the presence of chemical substance/absence: YMR114C (gene YMR114C) | The level of expressed mRNA in the presence of chemical substance/absence: YMR258C (gene YMR258C) | The level of expressed mRNA in the presence of chemical substance/absence: YNL026W (gene YNL026W) | level of expressed mRNA in the presence of chemical substance/in its absence (gene YNL045W) | level of expressed mRNA in the presence of chemical substance/in its absence (gene YNL130C) | The level of expressed mRNA in the presence of chemical substance/absence: YNL200C (gene YNL200C) | The level of expressed mRNA in the presence of chemical substance/absence: YNL276C (gene YNL276C) | The level of expressed mRNA in the presence of chemical substance/absence: YNR051C (gene YNR051C) | The level of expressed mRNA in the presence of chemical substance/absence: YOL026C (gene YOL026C) | The level of expressed mRNA in the presence of chemical substance/absence: YOL030W (gene YOL030W) | level of expressed mRNA in the presence of chemical substance/in its absence (gene YOR130C) | The level of expressed mRNA in the presence of chemical substance/absence: YOR138C (gene YOR138C) | The level of expressed mRNA in the presence of chemical substance/absence: YOR267C (gene YOR267C) | The level of expressed mRNA in the presence of chemical substance/absence: YOR325W (gene YOR325W)
1.3: The level of expressed mRNA in the presence of chemical substance/absence: YJL017W (gene YJL017W) | level of expressed mRNA in the presence of chemical substance/in its absence (gene YMR271C) | level of expressed mRNA in the presence of chemical substance/in its absence (gene YNL012W) | level of expressed mRNA in the presence of chemical substance/in its absence (gene YNL037C) | level of expressed mRNA in the presence of chemical substance/in its absence (gene YOL058W)
1.8: level of expressed mRNA in the presence of chemical substance/in its absence (gene YNL231C)
1.7: level of expressed mRNA in the presence of chemical substance/in its absence (gene YMR105C)
0.8: The level of expressed mRNA in the presence of chemical substance/absence: YHR181W (gene YHR181W) | The level of expressed mRNA in the presence of chemical substance/absence: YJL037W (gene YJL037W) | The level of expressed mRNA in the presence of chemical substance/absence: YJL049W (gene YJL049W) | level of expressed mRNA in the presence of chemical substance/in its absence (gene YJR142W) | level of expressed mRNA in the presence of chemical substance/in its absence (gene YJR148W) | The level of expressed mRNA in the presence of chemical substance/absence: YKL051W (gene YKL051W) | The level of expressed mRNA in the presence of chemical substance/absence: YKR040C (gene YKR040C) | The level of expressed mRNA in the presence of chemical substance/absence: YLR097C (gene YLR097C) | level of expressed mRNA in the presence of chemical substance/in its absence (gene YLR142W) | The level of expressed mRNA in the presence of chemical substance/absence: YLR415C (gene YLR415C) | The level of expressed mRNA in the presence of chemical substance/absence: YML041C (gene YML041C) | level of expressed mRNA in the presence of chemical substance/in its absence (gene YMR296C) | level of expressed mRNA in the presence of chemical substance/in its absence (gene YNL106C) | The level of expressed mRNA in the presence of chemical substance/absence: YNL181W (gene YNL181W) | The level of expressed mRNA in the presence of chemical substance/absence: YNL212W (gene YNL212W) | The level of expressed mRNA in the presence of chemical substance/absence: YNL253W (gene YNL253W) | The level of expressed mRNA in the presence of chemical substance/absence: YNL265C (gene YNL265C) | level of expressed mRNA in the presence of chemical substance/in its absence (gene YNR059W) | The level of expressed mRNA in the presence of chemical substance/absence: YOR022C (gene YOR022C) | The level of expressed mRNA in the presence of chemical substance/absence: YOR087W (gene YOR087W)
0.5: The level of expressed mRNA in the presence of chemical substance/absence: YJL032W (gene YJL032W) | level of expressed mRNA in the presence of chemical substance/in its absence (gene YLR300W) | The level of expressed mRNA in the presence of chemical substance/absence: YNL191W (gene YNL191W) | The level of expressed mRNA in the presence of chemical substance/absence: YNL194C (gene YNL194C) | The level of expressed mRNA in the presence of chemical substance/absence: YOR155C (gene YOR155C)
1.5: level of expressed mRNA in the presence of chemical substance/in its absence (gene YJR159W) | level of expressed mRNA in the presence of chemical substance/in its absence (gene YKR039W)
0.7: The level of expressed mRNA in the presence of chemical substance/absence: YHR105W (gene YHR105W) | The level of expressed mRNA in the presence of chemical substance/absence: YHR180W (gene YHR180W) | The level of expressed mRNA in the presence of chemical substance/absence: YIL108W (gene YIL108W) | The level of expressed mRNA in the presence of chemical substance/absence: YIL127C (gene YIL127C) | level of expressed mRNA in the presence of chemical substance/in its absence (gene YIL167W) | level of expressed mRNA in the presence of chemical substance/in its absence (gene YJL088W) | The level of expressed mRNA in the presence of chemical substance/absence: YJR044C (gene YJR044C) | The level of expressed mRNA in the presence of chemical substance/absence: YLR226W (gene YLR226W) | level of expressed mRNA in the presence of chemical substance/in its absence (gene YLR307W) | The level of expressed mRNA in the presence of chemical substance/absence: YMR068W (gene YMR068W) | The level of expressed mRNA in the presence of chemical substance/absence: YMR071C (gene YMR071C) | level of expressed mRNA in the presence of chemical substance/in its absence (gene YNL322C) | The level of expressed mRNA in the presence of chemical substance/absence: YOR253W (gene YOR253W)
0.6: The level of expressed mRNA in the presence of chemical substance/absence: YHL037C (gene YHL037C) | The level of expressed mRNA in the presence of chemical substance/absence: YHR095W (gene YHR095W) | level of expressed mRNA in the presence of chemical substance/in its absence (gene YHR137W) | The level of expressed mRNA in the presence of chemical substance/absence: YKL090W (gene YKL090W) | The level of expressed mRNA in the presence of chemical substance/absence: YKL097C (gene YKL097C) | level of expressed mRNA in the presence of chemical substance/in its absence (gene YLR180W) | The level of expressed mRNA in the presence of chemical substance/absence: YLR338W (gene YLR338W) | The level of expressed mRNA in the presence of chemical substance/absence: YLR339C (gene YLR339C) | The level of expressed mRNA in the presence of chemical substance/absence: YLR392C (gene YLR392C) | level of expressed mRNA in the presence of chemical substance/in its absence (gene YMR189W) | The level of expressed mRNA in the presence of chemical substance/absence: YNL176C (gene YNL176C) | The level of expressed mRNA in the presence of chemical substance/absence: YOR088W (gene YOR088W)
1.9: level of expressed mRNA in the presence of chemical substance/in its absence (gene YOL153C)
1.1: The level of expressed mRNA in the presence of chemical substance/absence: YHL021C (gene YHL021C) | level of expressed mRNA in the presence of chemical substance/in its absence (gene YHR037W) | level of expressed mRNA in the presence of chemical substance/in its absence (gene YHR190W) | level of expressed mRNA in the presence of chemical substance/in its absence (gene YIL033C) | level of expressed mRNA in the presence of chemical substance/in its absence (gene YIL154C) | level of expressed mRNA in the presence of chemical substance/in its absence (gene YJL196C) | The level of expressed mRNA in the presence of chemical substance/absence: YML029W (gene YML029W) | The level of expressed mRNA in the presence of chemical substance/absence: YML079W (gene YML079W) | level of expressed mRNA in the presence of chemical substance/in its absence (gene YML110C) | level of expressed mRNA in the presence of chemical substance/in its absence (gene YNL104C) | level of expressed mRNA in the presence of chemical substance/in its absence (gene YNR033W) | level of expressed mRNA in the presence of chemical substance/in its absence (gene YOL126C) | level of expressed mRNA in the presence of chemical substance/in its absence (gene YOR099W)
